The text below walks through data of PubChem BioAssay (NCI).

SMILES strings stand for the structures.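 1) Cells in 96-well plates. 2) Compound, 48 h, 5 concentrations. 3) Linear interpolation between surrounding doses. 4) Unreached endpoint = highest concentration. TGI: concentration producing complete growth inhibition.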

One assay concerns SF-539 CNS. In words: NCI anticancer screen, dose series, 48 h.
In the case of `O=C1O[C@@H](c2ccccc2)C[C@@H]1CN1CCOCC1`, the TGI is more than 100 µM.

For the compound `COc1ccc2nc(-c3ccc(OCc4ccccc4)cc3)ccc2c1`, the TGI is more than 100 µM.

The compound `N#C/C(=C\NC(=S)Nc1ccc(S(=O)(=O)Nc2ccccn2)cc1)C(N)=O` yielded a TGI of more than 100 µM.

Compound `COC1(C)CC2N(C(=O)c3ccccc3)N=C(c3ccccc3)CC2(C)O1` (stereo unspecified) returned a TGI of more than 100 µM.

Turning to `Cc1c(Cl)ccc2c(=O)c3cccc(CC(=O)O)c3oc12`, the TGI is more than 100 µM.

In turn, `Nc1ccccc1Nc1ccccc1C(=O)[O-].Nc1ccccc1Nc1ccccc1C(=O)[O-].[Cu+2]` showed a TGI of more than 100 µM.

In turn, `Cc1ccccc1C1OC1C(=O)c1ccccc1N` (stereo unspecified) gave a TGI of more than 100 µM.

With `CCOC(=O)C(OCC1CC=CCC1)Sc1ccccc1` (stereo unspecified), the TGI is more than 100 µM.

The compound `O=C(NS(=O)(=O)Nc1ccc(Cl)cc1)OCc1ccc(Cl)cc1Cl` registered a TGI of 40.6 µM.

For the next assay, the system named is UO-31 renal. In words: NCI anticancer screen, dose series, 48 h.
Consider `Nc1nc2ncc(SCc3ccc(C(=O)NC(CCC(=O)O)C(=O)O)cc3)cc2c(=O)[nH]1` (stereo unspecified), for which the TGI was more than 100 µM.

On to `CC(C)CC(N)C(=O)OCN1C(=O)C2C3C=CC(C2C1=O)C1C2C(=O)N(COC(=O)C(N)CC(C)C)C(=O)C2C31` (stereo unspecified), for which the TGI is more than 100 µM.

With `COC(=O)c1cc(CC(C)C)c2c(c1)[nH]c1ccccc12`, the TGI was more than 100 µM.

Compound `C[N+](C)(C)CC(=O)N/N=c1\cc(C(=O)Nc2ccc(N=O)cc2C#N)oc2cc(O)ccc12` returned a TGI of more than 100 µM.

In turn, `N#CCCN(c1ccc(C=Nc2cccc([N+](=O)[O-])c2)cc1)S(=O)(=O)c1ccccc1` showed a TGI of more than 100 µM.

Compound `CC1(C)CC2(C)CC1CC2O` (stereo unspecified) yielded a TGI of more than 100 µM.

As for `COc1ccc(/C(=C/n2ccnc2)C(=O)c2ccc(OC)c(OC)c2)cc1`, the TGI was more than 100 µM.

Regarding `Clc1cc(N/N=C(/c2ccccc2)c2ncccn2)ncn1`, the TGI was 55.8 µM.

For the compound `O=C1CC2(C[C@@H]3CCCCCCCCC[C@@H](C3)C2)N1` (stereo partly specified), the TGI stood at 27.8 µM.

Take `Cc1c(S(=O)(=O)c2ccccc2)c(N)n(Cc2ccccc2)c1C`: the TGI was more than 100 µM.

`CCCN=C1CC(C)Nc2ccccc2N1` (stereo unspecified) displayed a TGI of more than 100 µM.

Consider `CC(C)C(Sc1nc(-c2ccccc2)c(-c2ccccc2)[nH]1)C(=O)NNC(=S)Nc1ccccc1` (stereo unspecified), for which the TGI turned out to be 35.8 µM.

For `COC1O[C@H]2CCN(C(=O)OCc3ccccc3)[C@H]2[C@H]1OCc1ccccc1` (stereo partly specified), the TGI is 97.7 µM.

With `COc1ccc(C2C(Cl)C(=O)N2NC(=O)c2ccc(NC(C)=O)cc2)cc1` (stereo unspecified), the TGI was more than 100 µM.

Compound `c1ccc(C[P+]2(c3ccccc3)c3ccccc3-c3ccccc32)cc1` gave a TGI of more than 100 µM.

As for `Cc1c(Cl)cccc1NC(=O)C(=O)C1C(=O)CC(C)(C)CC1=O`, the TGI is more than 100 µM.

In the case of `C=CCN(CC=C)Cn1c(=S)sc2ccccc21`, the TGI is more than 100 µM.

On to `O=C1O[C@@H](c2ccccc2)C[C@@H]1CN1CCOCC1`, for which the TGI was more than 100 µM.

For the compound `COc1ccc2nc(-c3ccc(OCc4ccccc4)cc3)ccc2c1`, the TGI is more than 100 µM.

`N#C/C(=C\NC(=S)Nc1ccc(S(=O)(=O)Nc2ccccn2)cc1)C(N)=O`: the TGI was more than 100 µM.

As to `COC1(C)CC2N(C(=O)c3ccccc3)N=C(c3ccccc3)CC2(C)O1` (stereo unspecified), the TGI was more than 100 µM.

`Cc1c(Cl)ccc2c(=O)c3cccc(CC(=O)O)c3oc12` had a TGI of more than 100 µM.

The compound `Nc1ccccc1Nc1ccccc1C(=O)[O-].Nc1ccccc1Nc1ccccc1C(=O)[O-].[Cu+2]` returned a TGI of more than 100 µM.

`Cc1ccccc1C1OC1C(=O)c1ccccc1N` (stereo unspecified) had a TGI of more than 100 µM.

Consider `CCOC(=O)C(OCC1CC=CCC1)Sc1ccccc1` (stereo unspecified), for which the TGI is more than 100 µM.

Turning to `O=C(NS(=O)(=O)Nc1ccc(Cl)cc1)OCc1ccc(Cl)cc1Cl`, the TGI was determined as 44.2 µM.

The subject of another assay is COLO 205 colon. In words: NCI anticancer screen, dose series, 48 h.
`Nc1nc2ncc(SCc3ccc(C(=O)NC(CCC(=O)O)C(=O)O)cc3)cc2c(=O)[nH]1` (stereo unspecified) displayed a TGI of more than 100 µM.

On to `CC(C)CC(N)C(=O)OCN1C(=O)C2C3C=CC(C2C1=O)C1C2C(=O)N(COC(=O)C(N)CC(C)C)C(=O)C2C31` (stereo unspecified), for which the TGI was more than 100 µM.

Turning to `COC(=O)c1cc(CC(C)C)c2c(c1)[nH]c1ccccc12`, the TGI is more than 100 µM.

The compound `C[N+](C)(C)CC(=O)N/N=c1\cc(C(=O)Nc2ccc(N=O)cc2C#N)oc2cc(O)ccc12` yielded a TGI of more than 100 µM.

For `N#CCCN(c1ccc(C=Nc2cccc([N+](=O)[O-])c2)cc1)S(=O)(=O)c1ccccc1`, the TGI was more than 100 µM.

In the case of `CC1(C)CC2(C)CC1CC2O` (stereo unspecified), the TGI is more than 100 µM.

For `COc1ccc(/C(=C/n2ccnc2)C(=O)c2ccc(OC)c(OC)c2)cc1`, the TGI is more than 100 µM.

The compound `Clc1cc(N/N=C(/c2ccccc2)c2ncccn2)ncn1` came in with a TGI of 22.8 µM.

`O=C1CC2(C[C@@H]3CCCCCCCCC[C@@H](C3)C2)N1` (stereo partly specified) had a TGI of 30.7 µM.

On to `Cc1c(S(=O)(=O)c2ccccc2)c(N)n(Cc2ccccc2)c1C`, for which the TGI is more than 100 µM.

With `CCCN=C1CC(C)Nc2ccccc2N1` (stereo unspecified), the TGI is more than 100 µM.

Take `CC(C)C(Sc1nc(-c2ccccc2)c(-c2ccccc2)[nH]1)C(=O)NNC(=S)Nc1ccccc1` (stereo unspecified): the TGI amounted to 35.9 µM.

`COC1O[C@H]2CCN(C(=O)OCc3ccccc3)[C@H]2[C@H]1OCc1ccccc1` (stereo partly specified) gave a TGI of more than 100 µM.

`COc1ccc(C2C(Cl)C(=O)N2NC(=O)c2ccc(NC(C)=O)cc2)cc1` (stereo unspecified) showed a TGI of more than 100 µM.

In turn, `c1ccc(C[P+]2(c3ccccc3)c3ccccc3-c3ccccc32)cc1` registered a TGI of more than 100 µM.

The compound `Cc1c(Cl)cccc1NC(=O)C(=O)C1C(=O)CC(C)(C)CC1=O` registered a TGI of more than 100 µM.

`C=CCN(CC=C)Cn1c(=S)sc2ccccc21` had a TGI of more than 100 µM.

The compound `O=C1O[C@@H](c2ccccc2)C[C@@H]1CN1CCOCC1` came in with a TGI of more than 100 µM.

Compound `COc1ccc2nc(-c3ccc(OCc4ccccc4)cc3)ccc2c1` gave a TGI of more than 100 µM.

With `N#C/C(=C\NC(=S)Nc1ccc(S(=O)(=O)Nc2ccccn2)cc1)C(N)=O`, the TGI is more than 100 µM.

In turn, `Cc1c(Cl)ccc2c(=O)c3cccc(CC(=O)O)c3oc12` gave a TGI of more than 100 µM.

Take `Nc1ccccc1Nc1ccccc1C(=O)[O-].Nc1ccccc1Nc1ccccc1C(=O)[O-].[Cu+2]`: the TGI was more than 100 µM.

Take `Cc1ccccc1C1OC1C(=O)c1ccccc1N` (stereo unspecified): the TGI is more than 100 µM.

Compound `CCOC(=O)C(OCC1CC=CCC1)Sc1ccccc1` (stereo unspecified) came in with a TGI of more than 100 µM.

For the compound `O=C(NS(=O)(=O)Nc1ccc(Cl)cc1)OCc1ccc(Cl)cc1Cl`, the TGI is 32.3 µM.

A further assay concerns SF-268 CNS. In words: NCI anticancer screen, dose series, 48 h.
`Nc1nc2ncc(SCc3ccc(C(=O)NC(CCC(=O)O)C(=O)O)cc3)cc2c(=O)[nH]1` (stereo unspecified) had a TGI of more than 100 µM.

Turning to `CC(C)CC(N)C(=O)OCN1C(=O)C2C3C=CC(C2C1=O)C1C2C(=O)N(COC(=O)C(N)CC(C)C)C(=O)C2C31` (stereo unspecified), the TGI was more than 100 µM.

For `COC(=O)c1cc(CC(C)C)c2c(c1)[nH]c1ccccc12`, the TGI was more than 100 µM.

For the compound `C[N+](C)(C)CC(=O)N/N=c1\cc(C(=O)Nc2ccc(N=O)cc2C#N)oc2cc(O)ccc12`, the TGI was more than 100 µM.

Turning to `N#CCCN(c1ccc(C=Nc2cccc([N+](=O)[O-])c2)cc1)S(=O)(=O)c1ccccc1`, the TGI was more than 100 µM.

Regarding `CC1(C)CC2(C)CC1CC2O` (stereo unspecified), the TGI is more than 100 µM.
